Laboratory results from patent US10905123B2, “Herbicidal compounds” (Syngenta Participations AG, priority 2015, dated 2021).

Key:
Format in all cases: in vivo
Conditions in all cases: evaluated after 13 days
[1] = test system: Alopecurus myosuroides (ALOMY); assay: B1 pre-emergence herbicidal activity
Experimental: (§1) Seeds of a variety of test species were sown in standard soil in pots: Triticum aestivium (TRZAW), Oryza sativa (ORYSA), Avena fatua (AVEFA), Alopecurus myosuroides (ALOMY), Echinochloa crus-galli (ECHCG), Lolium perenne (LOLPE). After cultivation for one day (pre-emergence) under controlled conditions in a glasshouse (at 24/16° C., day/night; 14 hours light; 65% humidity), the plants were sprayed with an aqueous spray solution derived from the formulation of the technical active ingredient in acetone/water (50:50) solution containing 0.5% Tween 20 (polyoxyethelyene sorbitan monolaurate, CAS RN 9005-64-5). The test plants were then grown in a glasshouse under controlled conditions (at 24/16° C., day/night; 14 hours light; 65% humidity) and watered twice daily. After 13 days, the test was evaluated (5=total damage to plant; 0=no damage to plant).

[2] = test system: Avena fatua (AVEFA); assay: B1 pre-emergence herbicidal activity
Experimental: as §1

[3] = test system: Echinochloa crus-galli (ECHCG); assay: B1 pre-emergence herbicidal activity
Experimental: as §1

[4] = test system: Lolium perenne (LOLPE); assay: B1 pre-emergence herbicidal activity
Experimental: as §1

[5] = test system: Oryza sativa (ORYSA); assay: B1 pre-emergence herbicidal activity
Experimental: as §1

[6] = test system: Triticum aestivium (TRZAW); assay: B1 pre-emergence herbicidal activity
Experimental: as §1

[7] = test system: Alopecurus myosuroides (ALOMY); assay: B2 post-emergence herbicidal activity
Experimental: (§2) Seeds of a variety of test species were sown in standard soil in pots: Triticum aestivium (TRZAW), Oryza sativa (ORYSA), Avena fatua (AVEFA), Alopecurus myosuroides (ALOMY), Echinochloa crus-galli (ECHCG), Lolium perenne (LOLPE). After 8 days cultivation (post-emergence) under controlled conditions in a glasshouse (at 24/16° C., day/night; 14 hours light; 65% humidity), the plants were sprayed with an aqueous spray solution derived from the formulation of the technical active ingredient in acetone/water (50:50) solution containing 0.5% Tween 20 (polyoxyethelyene sorbitan monolaurate, CAS RN 9005-64-5). The test plants were then grown in a glasshouse under controlled conditions (at 24/16° C., day/night; 14 hours light; 65% humidity) and watered twice daily. After 13 days, the test was evaluated (5=total damage to plant; 0=no damage to plant).

[8] = test system: Avena fatua (AVEFA); assay: B2 post-emergence herbicidal activity
Experimental: as §2

[9] = test system: Echinochloa crus-galli (ECHCG); assay: B2 post-emergence herbicidal activity
Experimental: as §2

[10] = test system: Lolium perenne (LOLPE); assay: B2 post-emergence herbicidal activity
Experimental: as §2

[11] = test system: Oryza sativa (ORYSA); assay: B2 post-emergence herbicidal activity
Experimental: as §2

[12] = test system: Triticum aestivium (TRZAW); assay: B2 post-emergence herbicidal activity
Experimental: as §2

SMILES | Control of ALOMY after pre-emergence application (damage score 0-5) ([1]; Rate 1000 g/ha) | Control of AVEFA after pre-emergence application (damage score 0-5) ([2]; Rate 1000 g/ha) | Control of ECHCG after pre-emergence application (damage score 0-5) ([3]; Rate 1000 g/ha) | Control of LOLPE after pre-emergence application (damage score 0-5) ([4]; Rate 1000 g/ha) | Control of ORYSA after pre-emergence application (damage score 0-5) ([5]; Rate 1000 g/ha) | Control of TRZAW after pre-emergence application (damage score 0-5) ([6]; Rate 1000 g/ha) | Control of ALOMY after post-emergence application (damage score 0-5) ([7]; Rate 1000 g/ha) | Control of AVEFA after post-emergence application (damage score 0-5) ([8]; Rate 1000 g/ha) | Control of ECHCG after post-emergence application (damage score 0-5) ([9]; Rate 1000 g/ha) | Control of LOLPE after post-emergence application (damage score 0-5) ([10]; Rate 1000 g/ha) | Control of ORYSA after post-emergence application (damage score 0-5) ([11]; Rate 1000 g/ha) | Control of TRZAW after post-emergence application (damage score 0-5) ([12]; Rate 1000 g/ha) | also measured
CN(C(=O)OC(C)(C)C)c1cc(-c2cccnc2)nn1C [Compound A1, tert-butyl N-methyl-N-[2-methyl-5-(3-pyridyl)pyrazol-3-yl]carbamate] | 0 | 1 | 3 | 1 | 1 | 0 | 3 | 1 | 5 | 1 | 4 | 1 | 
Cc1nn(-c2cncnc2)cc1NC(=O)OC(C)(C)C [Compound A3, tert-butyl N-(3-methyl-1-pyrimidin-5-yl-pyrazol-4-yl)carbamate] |  |  |  |  |  |  |  |  |  |  |  |  | Control of ALOMY after pre-emergence application (damage score 0-5) ([1]; Rate 500 g/ha): 0; Control of AVEFA after pre-emergence application (damage score 0-5) ([2]; Rate 500 g/ha): 0; Control of ECHCG after pre-emergence application (damage score 0-5) ([3]; Rate 500 g/ha): 4; Control of LOLPE after pre-emergence application (damage score 0-5) ([4]; Rate 500 g/ha): 0; Control of ORYSA after pre-emergence application (damage score 0-5) ([5]; Rate 500 g/ha): 1; Control of TRZAW after pre-emergence application (damage score 0-5) ([6]; Rate 500 g/ha): 1; Control of ALOMY after post-emergence application (damage score 0-5) ([7]; Rate 500 g/ha): 2; Control of AVEFA after post-emergence application (damage score 0-5) ([8]; Rate 500 g/ha): 4; Control of ECHCG after post-emergence application (damage score 0-5) ([9]; Rate 500 g/ha): 5; Control of LOLPE after post-emergence application (damage score 0-5) ([10]; Rate 500 g/ha): 2; Control of ORYSA after post-emergence application (damage score 0-5) ([11]; Rate 500 g/ha): 1; Control of TRZAW after post-emergence application (damage score 0-5) ([12]; Rate 500 g/ha): 1
CC(C)(C)OC(=O)Nc1cn(-c2cncnc2)nc1C(F)(F)F [Compound A4] | 0 | 1 | 4 | 0 | 1 | 0 | 1 | 1 | 5 | 1 | 2 | 1 | 
Cc1nn(-c2cncnc2)cc1N(C)C(=O)OC(C)(C)C [Compound A5, tert-butyl N-methyl-N-(3-methyl-1-pyrimidin-5-yl-pyrazol-4-yl)carbamate] | 1 | 4 | 5 | 1 | 2 | 4 | 4 | 0 | 5 | 2 | 5 | 2 | 
CN(C(=O)OC(C)(C)C)c1cn(-c2cncnc2)nc1C(F)(F)F [Compound A6] | 0 | 3 | 5 | 1 | 2 | 0 | 3 | 1 | 5 | 1 | 5 | 1 | 
CC(C)(C)OC(=O)Nc1cn(-c2cccnc2)nc1C(F)(F)F [Compound A7] |  |  |  |  |  |  |  |  |  |  |  |  | Control of ALOMY after pre-emergence application (damage score 0-5) ([1]; Rate 500 g/ha): 0; Control of AVEFA after pre-emergence application (damage score 0-5) ([2]; Rate 500 g/ha): 0; Control of ECHCG after pre-emergence application (damage score 0-5) ([3]; Rate 500 g/ha): 2; Control of LOLPE after pre-emergence application (damage score 0-5) ([4]; Rate 500 g/ha): 0; Control of ORYSA after pre-emergence application (damage score 0-5) ([5]; Rate 500 g/ha): 1; Control of TRZAW after pre-emergence application (damage score 0-5) ([6]; Rate 500 g/ha): 0; Control of ALOMY after post-emergence application (damage score 0-5) ([7]; Rate 500 g/ha): 2; Control of AVEFA after post-emergence application (damage score 0-5) ([8]; Rate 500 g/ha): 2; Control of ECHCG after post-emergence application (damage score 0-5) ([9]; Rate 500 g/ha): 4; Control of LOLPE after post-emergence application (damage score 0-5) ([10]; Rate 500 g/ha): 1; Control of ORYSA after post-emergence application (damage score 0-5) ([11]; Rate 500 g/ha): 1; Control of TRZAW after post-emergence application (damage score 0-5) ([12]; Rate 500 g/ha): 0
Cc1nn(-c2cncc(F)c2)cc1N(C)C(=O)OC(C)(C)C [Compound A10] | 0 | 2 | 4 | 1 | 1 | 0 | 1 | 3 | 4 | 1 | 1 | 0 | 
CN(C(=O)OC(C)(C)C)c1cc(-c2cncnc2)nn1C [Compound A14] | 1 | 3 | 3 | 0 | 0 | 1 | 1 | 4 | 4 | 3 | 0 | 1 | 
Cc1nn(-c2cncnc2)cc1N(C)C(=O)NC(C)(C)C [Compound A16] | 1 | 1 | 2 | 1 | 1 | 1 | 1 | 3 | 4 | 2 | 0 | 1 | 
CN(C(=O)NC(C)(C)C)c1cn(-c2cncc(F)c2)nc1C(F)(F)F [Compound A19] | 0 | 0 | 2 | 1 | 0 | 0 | 1 | 1 | 4 | 1 | 0 | 0 | 
COC(=O)N(C)c1cn(-c2cncc(F)c2)nc1C(F)(F)F [Compound A27] | 0 | 0 | 2 | 0 | 0 | 0 | 0 | 3 | 4 | 2 | 1 | 1 | 
